In PMC6770214, “An Aromatic Aldehyde Synthase Controls the Synthesis of Hydroxytyrosol Derivatives Present in Virgin Olive Oil” (Antioxidants, 2019):

Assays:
OeAAS = biological target: T1, OeAAS (Olea europaea, UniProt A0A8S0T2W9); test: loss and restoration of enzyme activity without / with PLP; assay type: biochemical; settings: PLP omitted during purification or in reaction medium
T1 construct: gene OLEA9_A000744; codon-optimised synthetic gene in pET-28a(+)-TEV (NdeI-XhoI), His-tagged, E. coli BL21(DE3), Ni-NTA
T1 sequence (A0A8S0T2W9 1-487): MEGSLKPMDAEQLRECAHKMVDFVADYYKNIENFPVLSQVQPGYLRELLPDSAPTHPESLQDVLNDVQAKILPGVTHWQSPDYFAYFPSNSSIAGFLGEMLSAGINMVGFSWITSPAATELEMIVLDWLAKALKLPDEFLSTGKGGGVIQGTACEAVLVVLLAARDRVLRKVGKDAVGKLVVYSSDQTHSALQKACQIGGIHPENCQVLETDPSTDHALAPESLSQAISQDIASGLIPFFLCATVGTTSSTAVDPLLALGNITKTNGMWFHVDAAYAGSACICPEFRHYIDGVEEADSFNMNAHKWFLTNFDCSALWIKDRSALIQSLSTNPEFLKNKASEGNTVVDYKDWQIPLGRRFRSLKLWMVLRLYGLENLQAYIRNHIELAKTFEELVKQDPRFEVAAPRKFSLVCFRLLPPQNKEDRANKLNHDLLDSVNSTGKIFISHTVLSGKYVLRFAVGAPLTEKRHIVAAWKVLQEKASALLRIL

[1] = substrate: N[C@@H](Cc1ccc(O)c(O)c1)C(=O)O; test: HPLC-DAD quantification of aldehyde product; assay type: biochemical, Olea europaea; settings: 50 mM sodium phosphate pH 6.8, 200 uM PLP, 30 °C, 20 min, L-DOPA 0.05-5 mM

## Cc1ncc(COP(=O)(O)O)c(C=O)c1O [PLP]
OeAAS
  loss and restoration of enzyme activity without / with PLP: absence of PLP during purification or in the reaction medium resulted in a total loss

B1: OeAAS (Olea europaea subsp. europaea) (protein)
chain: T1 sequence (A0A8S0T2W9 1-487)
notes: codon-optimised synthetic gene in pET-28a(+)-TEV (NdeI-XhoI), His-tagged, E. coli BL21(DE3), Ni-NTA
[1]
  Km: 0.15 mM
